In ChEMBL document CHEMBL1125053, “Dihydropyrimidine calcium channel blockers. 2. 3-substituted-4-aryl-1,4-dihydro-6-methyl-5-pyrimidinecarboxylic acid esters as potent mimics of dihydropyridines” (J Med Chem, 1990):

molecular target: Voltage-gated L-type calcium channel (Homo sapiens, UniProt Q13936+Q13698+Q01668+O60840); assay: In vitro vasorelaxant activity (calcium channel blocking activity) was determined with potassium-depolarized rabbit thoracic aorta; format: functional, tissue-based

SMILES | IC50 [µM]
CCOC(=O)C1=C(C)NC(OCC)=C(C(=O)OCC)C1c1cccc([N+](=O)[O-])c1 (centres undefined) | 0.026
CCCN1C(S)=NC(C)=C(C(=O)OCC)C1c1cccc([N+](=O)[O-])c1 (centres undefined) | 0.05
CCOC(=O)C1=C(C)NC(SC)=NC1c1cccc([N+](=O)[O-])c1 (centres undefined) | 0.13
CCOC(=O)C1=C(C)NC(SCC)=C(C(=O)OCC)C1c1cccc([N+](=O)[O-])c1 (centres undefined) | 0.004
CCOC(=O)C1=C(C)N=C(OC)NC1c1cccc([N+](=O)[O-])c1 (centres undefined) | 0.71

The next lines start with the values.

IC50 [µM] | SMILES
0.026 | CCOC(=O)N1C(=S)N=C(C)/C(=C(/O)OCC)C1c1ccccc1C(F)(F)F (centres undefined)
0.017 | CCOC(=O)N1C(=S)N=C(C)/C(=C(/O)OCC)C1c1cccc([N+](=O)[O-])c1 (centres undefined)
0.27 | CCO/C(O)=C1\C(C)=NC(=S)N(C(=O)N(C)C)C1c1cccc([N+](=O)[O-])c1 (centres undefined)
0.002 | CCOC(=O)N1C(=S)N=C(C)/C(=C(/O)OC(C)C)[C@H]1c1cccc([N+](=O)[O-])c1
